Like-named read-outs stand apart in the source and are kept apart here.
Columns and labels:
[1] = tested on: HepG2 cell; assay: Cellular lipid-lowering level detection (oleic acid-induced cellular hyperlipidemia model, triglyceride content); format: cell-based, human; conditions: HepG2 cells, drug treatment 24 h
Method: The lipid-lowering ability at the cellular level was confirmed by detecting triglyceride levels of hyperlipidemia cells to determine whether the compounds have the ability to improve hyperlipidemia at the cellular level (J. Med. Chem. 2021, 64(5), 2815-2828). This experiment adopted a human liver cancer cell, HepG2 cell. After a cellular hyperlipidemia model was induced by oleic acid, the cells were incubated and treated with a drug for 24 h. Then, the cells were lysed by ultrasonication, and the content of triglyceride was detected according to the instructions of a triglyceride kit.

[2] = molecular target: FIH (Homo sapiens (Human), UniProt Q9NWT6); assay: Inhibitory activities of compounds on FIH, fluorescence polarization (FP assay); format: binding
Method: The compounds were serially diluted in an assay buffer to 12 concentration gradients, and then 20 μL of diluted 300 nM FIH protein was added to each well. […] The plate was incubated at room temperature for 1 h and scanned with a Synergy plate reader. The excitation wavelength was set to 485 nm, and the emission wavelength was set to 535 nm. […] The obtained data were imported into Graphpad prism 8.0 for analysis and fit to obtain IC50 values.

[3] = FP competition with FITC-HIF-1α 788-822, Table 1, read-out: FIH IC50
[4] = Table 2, comparison compounds, read-out: FIH (IC50 nM), compound where position 5 of pyridine is linked to other structures

Chain of FIH (Q9NWT6 whole entry): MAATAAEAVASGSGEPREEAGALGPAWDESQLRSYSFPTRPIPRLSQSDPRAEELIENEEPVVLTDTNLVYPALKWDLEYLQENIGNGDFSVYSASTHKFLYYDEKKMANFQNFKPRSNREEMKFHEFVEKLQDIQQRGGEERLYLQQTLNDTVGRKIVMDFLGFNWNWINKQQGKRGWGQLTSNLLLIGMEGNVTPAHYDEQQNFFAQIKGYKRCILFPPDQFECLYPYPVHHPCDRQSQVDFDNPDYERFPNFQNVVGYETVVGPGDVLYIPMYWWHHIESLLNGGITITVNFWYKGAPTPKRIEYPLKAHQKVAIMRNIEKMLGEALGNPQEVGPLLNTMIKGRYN

| IC50 [2, 3] | IC50 [2, 4] | Compound | Whether or not it can improve cellular hyperlipidemia [1] |
| --- | --- | --- | --- |
| – | – | O=C(O)CNC(=O)c1ncc(-c2cccc(Cl)c2)cc1O [AKB-6548, reference compound] | No |
| – | – | O=C(O)CNC(=O)c1ncc(-c2cc(-c3ccccc3)no2)cc1O [Compound I-1, 3-Hydroxy-5-(3-phenylisoxazol-5-yl)picolinoyl glycine] | Yes |
| – | – | Cc1cccc(-c2cc(-c3cnc(C(=O)NCC(=O)O)c(O)c3)on2)c1 [Compound I-2, 3-Hydroxy-5-(3-m-tolylisoxazol-5-yl)picolinoyl glycine] | Yes |
| – | – | O=C(O)CNC(=O)c1ncc(-c2cc(-c3ccc(-c4ccccc4)cc3)no2)cc1O [Compound I-3, 3-Hydroxy-5-(3-biphenylisoxazol-5-yl)picolinoyl glycine] | Yes |
| – | – | COc1cccc(-c2cc(-c3cnc(C(=O)NCC(=O)O)c(O)c3)on2)c1 [Compound I-4, 3-Hydroxy-5-(3-m-methoxyphenylisoxazol-5-yl)picolinoyl glycine] | Yes |
| – | – | O=C(O)CNC(=O)c1ncc(-c2cc(-c3cccc(Cl)c3)no2)cc1O [Compound I-5, 3-Hydroxy-5-(3-m-chlorophenylisoxazol-5-yl)picolinoyl glycine] | Yes |
| – | – | O=C(O)CNC(=O)c1ncc(-c2cc(-c3cccc(Br)c3)no2)cc1O [Compound I-6, 3-Hydroxy-5-(3-m-bromophenylisoxazol-5-yl)picolinoyl glycine] | Yes |
| – | – | O=C(O)CNC(=O)c1ncc(-c2cc(C3CCCCC3)no2)cc1O [Compound I-7, 3-Hydroxy-5-(3-cyclohexylisoxazol-5-yl)picolinoyl glycine] | Yes |
| – | – | O=C(O)CNC(=O)c1ncc(-c2cc(C3CC3)no2)cc1O [Compound I-8, 3-Hydroxy-5-(3-cyclopropylisoxazol-5-yl)picolinoyl glycine] | Yes |
| – | – | N#Cc1cccc(-c2cc(-c3cnc(C(=O)NCC(=O)O)c(O)c3)on2)c1 [Compound I-9, 3-Hydroxy-5-(3-m-cyanophenylisoxazol-5-yl)picolinoyl glycine] | Yes |
| – | – | O=C(O)CNC(=O)c1ncc(-c2cc(-c3cccc(C(F)(F)F)c3)no2)cc1O [Compound I-10, 3-Hydroxy-5-(3-m-trifluoromethylphenylisoxazol-5-yl)picolinoyl glycine] | Yes |
| – | – | O=C(O)CNC(=O)c1ncc(-c2cc(-c3cccc4ccccc34)no2)cc1O [Compound I-11, 3-Hydroxy-5-(3-(naphthyl-1-yl)isoxazol-5-yl)picolinoyl glycine] | Yes |
| – | – | O=C(O)CNC(=O)c1ncc(-c2cc(-c3ccc4ccccc4c3)no2)cc1O [Compound I-12, 3-Hydroxy-5-(3-(naphthyl-2-yl)isoxazol-5-yl)picolinoyl glycine] | Yes |
| – | – | Cc1ccccc1-c1cc(-c2cnc(C(=O)NCC(=O)O)c(O)c2)on1 [Compound I-13, 3-Hydroxy-5-(3-o-tolylisoxazol-5-yl)picolinoyl glycine] | Yes |
| – | – | Cc1ccc(-c2cc(-c3cnc(C(=O)NCC(=O)O)c(O)c3)on2)cc1 [Compound I-14, 3-Hydroxy-5-(3-p-tolylisoxazol-5-yl)picolinoyl glycine] | Yes |
| – | – | Cc1cc(C)cc(-c2cc(-c3cnc(C(=O)NCC(=O)O)c(O)c3)on2)c1 [Compound I-15, 3-Hydroxy-5-(3-m-dimethylphenylisoxazol-5-yl)picolinoyl glycine] | Yes |
| – | – | O=C(O)CNC(=O)c1ncc(-c2cc(-c3cccc(F)c3)no2)cc1O [Compound I-16, 3-Hydroxy-5-(3-m-fluorophenylisoxazol-5-yl)picolinoyl glycine] | Yes |
| – | – | O=C(O)CNC(=O)c1ncc(-c2cc(-c3ccccc3Cl)no2)cc1O [Compound I-17, 3-Hydroxy-5-(3-o-chlorophenylisoxazol-5-yl)picolinoyl glycine] | Yes |
| – | – | O=C(O)CNC(=O)c1ncc(-c2cc(-c3ccc(Cl)cc3)no2)cc1O [Compound I-18, 3-Hydroxy-5-(3-p-chlorophenylisoxazol-5-yl)picolinoyl glycine] | Yes |

| IC50 [2, 3] | IC50 [2, 4] | Compound | Whether or not it can improve cellular hyperlipidemia [1] |
| --- | --- | --- | --- |
| – | – | O=C(O)CNC(=O)c1ncc(-c2cc(-c3cc(Cl)cc(Cl)c3)no2)cc1O [Compound I-19, 3-Hydroxy-5-(3-m-dichlorophenylisoxazol-5-yl)picolinoyl glycine] | Yes |
| – | – | O=C(O)CNC(=O)c1ncc(-c2cc(-c3ccccc3Br)no2)cc1O [Compound I-20, 3-Hydroxy-5-(3-o-bromophenylisoxazol-5-yl)picolinoyl glycine] | Yes |
| – | – | O=C(O)CNC(=O)c1ncc(-c2cc(-c3ccc(Br)cc3)no2)cc1O [Compound I-21, 3-Hydroxy-5-(3-p-bromophenylisoxazol-5-yl)picolinoyl glycine] | Yes |
| – | – | O=C(O)CNC(=O)c1ncc(-c2cc(-c3ccccc3C(F)(F)F)no2)cc1O [Compound I-22, 3-Hydroxy-5-(3-o-trifluoromethylphenylisoxazol-5-yl)picolinoyl glycine] | Yes |
| – | – | O=C(O)CNC(=O)c1ncc(-c2cc(-c3ccc(C(F)(F)F)cc3)no2)cc1O [Compound I-23, 3-Hydroxy-5-(3-p-trifluoromethylphenylisoxazol-5-yl)picolinoyl glycine] | Yes |
| 799 ± 8.6 nM | – | O=C(O)CNC(=O)c1ncc(-c2cc(-c3ccccc3F)no2)cc1O [Compound I-24, 3-Hydroxy-5-(3-o-fluorophenylisoxazol-5-yl)picolinoyl glycine] | Yes |
| 540 ± 1.8 nM | – | O=C(O)CNC(=O)c1ncc(-c2cc(-c3ccc(F)cc3)no2)cc1O [Compound I-25, 3-Hydroxy-5-(3-p-fluorophenylisoxazol-5-yl)picolinoyl glycine] | Yes |
| – | – | O=C(O)CNC(=O)c1ncc(-c2cc(-c3cc(F)cc(F)c3)no2)cc1O [Compound I-26, 3-Hydroxy-5-(3-m-difluorophenylisoxazol-5-yl)picolinoyl glycine] | Yes |
| 782 ± 9.6 nM | – | CC(C)(C)c1cccc(-c2cc(-c3cnc(C(=O)NCC(=O)O)c(O)c3)on2)c1 [Compound I-27, 3-Hydroxy-5-(3-m-tert-butylphenylisoxazol 5-yl)picolinoyl glycine] | Yes |
| 991 ± 12.3 nM | – | Cc1nc(C(=O)NCC(=O)O)c(O)cc1-c1cc(-c2ccccc2)no1 [Compound I-28, 3-Hydroxy-5-(3-phenylisoxazol-5-yl)-6-methylpicolinoyl glycine] | Yes |
| 1010 ± 25.1 nM | – | Cc1c(-c2ccccc2)noc1-c1cnc(C(=O)NCC(=O)O)c(O)c1 [Compound I-29, 3-Hydroxy-5-(4-methyl-3-phenylisoxazol-5-yl)picolinoyl glycine] | Yes |
| 1210 ± 22.9 nM | – | CC(C)(C)c1c(-c2ccccc2)noc1-c1cnc(C(=O)NCC(=O)O)c(O)c1 [Compound I-30, 3-Hydroxy-5-(4-tert-butyl-3-phenylisoxazol-5-yl)picolinoyl glycine] | Yes |
| 1920 ± 14.5 nM | – | O=C(O)CNC(=O)c1ncc(-c2onc(-c3ccccc3)c2C2CC2)cc1O [Compound I-31, 3-Hydroxy-5-(4-cyclopropyl-3-phenylisoxazol-5-yl)picolinoyl glycine] | Yes |
| 998 ± 10.9 nM | – | O=C(O)CNC(=O)c1ncc(-c2onc(-c3ccccc3)c2C2CCCCC2)cc1O [Compound I-32, 3-Hydroxy-5-(4-cyclohexyl-3-phenylisoxazol-5-yl) picolinoyl glycine] | Yes |
| 787 ± 9.5 nM | – | O=C(O)CNC(=O)c1ncc(-c2onc(-c3ccccc3)c2-c2ccccc2)cc1O [Compound I-33, 3-Hydroxy-5-(3,4-diphenylisoxazol-5-yl)picolinoyl glycine] | Yes |
| – | 19590 ± 43.8 nM | O=C(O)CNC(=O)c1ncc(-c2cn(-c3ccccc3)nn2)cc1O [reference compound] | – |
| – | 9024 ± 36.1 nM | O=C(O)CNC(=O)c1ncc(-c2cc(-c3ccccc3)co2)cc1O [reference compound] | – |
| – | 22250 ± 56.3 nM | O=C(O)CNC(=O)c1ncc(-c2cc(-c3ccccc3)n[nH]2)cc1O [reference compound] | – |

Source: patent US20240376089A1, “3-HYDROXY-5-(ISOXAZOL-5-YL) PYRIDINE FORMYLGLYCINE COMPOUNDS, PREPARATION METHOD, PHARMACEUTICAL COMPOSITION AND USE” (CHINA PHARMACEUTICAL UNIVERSITY, priority 2022, published 2024)
